Broadly, the IC50 is the concentration at which inhibition is half-maximal. Read a high IC50 as weaker potency.

This note sets out measurements from US11883423B2, “Nucleobase analogue derivatives and their applications” (BOARD OF REGENTS, THE UNIVERSITY OF TEXAS SYSTEM, priority 2014, dated 2024).

SMILES strings stand for the structures.

In series [1] the test system is TC-1 mouse lung cancer cells. The series is described as follows: Anti-proliferative activity, MTT assay, TC-1 cells. In kind it is cell-based. As to conditions: 24 h. On the procedure:
(§1) The anti-proliferative activity of Gem-DHA was evaluated in Panc-02, TC-1, Panc-1-Luc, and BxPC-3 cell lines. For Panc-02 and TC-1 cells, cells (1,500/well for Panc-02 and 3,000/well for TC-1) were seeded in 96-well plates and incubated at 37° C. and 5% CO2 overnight. The cells were then treated with various concentrations of Gem-DHA or other compounds for 24 h. For BxPC-3 and Panc-1-Luc cells, 3,000 and 1,000 cells/well were used, respectively, and cells were co-incubated with the Gem-DHA for 72 h. Cell viability was determined using an MTT assay as previously described (Naguib YW et al. Mol Pharm. 2014, 11(4), 1239-1249). Gemcitabine HCl was dissolved in cell culture medium, whereas Gem-DHA and DHA were dissolved in dimethylsulfoxide (DMSO). The values of IC50 were calculated using GraphPad Prism (GraphPad software, Inc., La Jolla, CA).

In the next series the test system is Panc-02 tumors. As to the kind of experiment: Antitumor activity against s.c. Panc-02 tumors in C57BL/6 mice. In kind it is in vivo. Here is the method: Therefore, the in vivo anti-tumor activity of Gem-DHA was also evaluated and compared to that of DHA alone in male C57BL/6 mice (6-8 weeks, Charles River) with subcutaneously (s.c.)
implanted Panc-02 tumors. Briefly, 1×10^6 cells were s.c. injected in the right flank of mice. Sixteen days later, mice were randomized into groups (n=12) and i.p. injected with Gem-DHA (˜55 mg/kg, […]) or DHA (˜33 mg/kg, ˜0.1 mmole/kg). Mice in the control group were i.p. injected with sterile 5% mannitol (w/v). Gem-DHA and DHA was dissolved in a Tween 80/ethanol/water solution with 5% (w/v) of mannitol. The doses were based on the average weight of mice in the same group on the first day of injection. The treatment was repeated twice a week for up to 6 doses. Tumor growth was monitored using a digital caliper, and tumor volume was calculated based on the longest diameter (L1) and the shortest diameter (L2) of each tumor using the equation of V=½×(L1×L2×L2).

The subject of a further series is BxPC-3 cells. As to the kind of experiment: Anti-proliferative activity, MTT assay, BxPC-3 cells. In kind it is cell-based, human. As to conditions: Bx-PC3 cells. Here is the method:
as §1
(In general: Tetrazolium dyes change colour on reduction, which living cells bring about.)

Details of series [2]: species or system BALB/c mice. As to conditions: female, BALB/c, mouse, in vivo, iv, 75 mg/kg, 1 h. Here is the method: The biodistribution of Gem-DHA was further evaluated in healthy BALB/c mice. Briefly, female BALB/c mice (Charles River, 14-16 weeks, n=3) were injected via the tail vein with Gem-DHA in a Tween 80/ethanol/water solution containing 5% (w/v) mannitol at a dose of 75 mg/kg. After 1 h, mice were euthanized to collect pancreas, lung, spleen, liver, heart, and kidneys. Gem-DHA was extracted from the samples and analyzed using HPLC. As a control, mice (n=3) were also injected with gemcitabine HCl (75 mg/kg) in 5% (w/v) mannitol solution and euthanized 1 h later to collect their pancreas. Gemcitabine was extracted using the following method. Briefly, once the pancreas was collected, it was weighed, placed into 0.25 ml of PBS containing 40 μg of tetrahydrouridine (a deoxycytidine deaminase inhibitor) and homogenized using a bead beater. Deoxyuridine (dU, 20 μl of 20 μg/ml) was then added into the homogenate as an internal standard. Acetonitrile was used to precipitate the proteins twice, and gemcitabine content in the supernatant was analyzed using HPLC. […] Therefore, it appeared that Gem-DHA preferred to distribute in pancreatic tissues.

The subject of series [3] is Panc-1-Luc human pancreatic cells. As to the kind of experiment: Anti-proliferative activity, MTT assay, Panc-1-Luc cells. In kind it is cell-based. As to conditions: 72 h. On the procedure: as §1
Series [4] can be described thus: Plasma pharmacokinetics after i.v. injection. The series is classed as in vivo, C57BL/6 mice. As to conditions: 75 mg/kg. Here is the method:
Healthy female C57BL/6 mice (6-8 weeks) were injected intravenously (i.v.) with Gem-DHA solution at a dose of 75 mg/kg via the tail vein. At pre-determined time intervals (5, 15, 30, 60, 120, and 180 min), 3 mice were euthanized at each time point to collect plasma samples. Gem-DHA was extracted twice using ethyl acetate and analyzed using HPLC. Data were analyzed using the Pharsight WinNonlin software (Sunnyvale, Calif.).

Series [5] relates to Kras-Ink4a mice that spontaneously develop pancreatic tumors. As to the kind of experiment: Survival of Kras-Ink4a mice, genetically modified model of pancreatic cancer. As to conditions: i.p., 50 mg/kg. In kind it is in vivo, mouse. On the procedure: Finally, the antitumor activity of Gem-DHA was also evaluated in a genetically modified mouse model of pancreatic cancer. Female Kras-Ink4a mice that spontaneously develop pancreatic tumors were obtained from Dr. Stephen Hursting's lab at the University of Texas at Austin (Lashinger L et al. Cancer Prevention Research. 2013, 6(10), 1046-1055). […] On the 20th week, one group of mice (n=5) started to receive Gem-DHA (50 mg/kg, in Tween 80/ethanol/water solution with 5% (w/v) of mannitol) by i.p. injection. The injection was repeated twice a week, once a week for the last 5 doses, for a total of 29 times. As a control, another group of mice (n=6) were left untreated. […] Shown in FIG. 15 are the survival curves of mice treated with Gem-DHA or left untreated. […] The median survival time of mice that were treated with Gem-DHA was 280 days, in comparison to 172 days for mice that were left untreated (p=0.01, Log-rank (Mantel-Cox) test).

Series [6] has as its system Panc-02 cells. As to the kind of experiment: Apoptosis analysis, Annexin V staining and flow cytometry. The series is classed as cell-based, mouse. As to conditions: 48 h. On the procedure:
Apoptosis analysis was carried out as previously reported (Zhu S et al. Biomaterials. 2013, 34(9), 2327-2339). Briefly, 100,000 Panc-02 cells were incubated in 24-well plates for 24 h at 37° C. and 5% CO2 and then co-incubated with various concentrations of Gem-DHA for 48 h. The cells were then harvested and stained with 0.1 ml of Guava Nexin reagent (Millipore Corporation, Billerica, Mass.) for 20 min at room temperature, protected from light. The stained cells were analyzed using a Millipore Guava easyCyte 8HT Flow Cytometry System. Control cells were left untreated.
In general terms: Flow cytometry measures light scatter and fluorescence of single cells or particles in a stream.

In series [7] the test system is Panc-02 cells. As to the kind of experiment: Anti-proliferative activity, MTT assay, Panc-02 cells. The series is classed as cell-based. As to conditions: Mus musculus, Panc02, 24 h. On the procedure:
as §1

The next series relates to Panc-02 tumor cells. As to the kind of experiment: Cytotoxicity after 4 h co-incubation, MTT test. As to conditions: Panc-02 cells, at 60 μM. In kind it is cell-based, mouse. On the procedure:
The mechanisms underlying the cytotoxicity of the Gem-DHA may be different from that of gemcitabine. For example, in cell culture studies, Panc-02 cells were seeded into 96-well plates (1,500 cells per well) and incubated at 37° C., 5% CO2 for 24 h. They were then co-incubated with various concentrations of Gem-DHA, gemcitabine HCl alone, or DHA alone for 4 h, and cell viability was determined using an MTT test.

Regarding `CC/C=C\C/C=C\C/C=C\C/C=C\C/C=C\C/C=C\CCC(=O)Nc1ccn(C2OC(CO)C(O)C2(F)F)c(=O)n1` (stereo not drawn) [Gem-DHA, 4-(N)-Docosahexaenoyl Difluorodeoxycytidine], the “Inhibition of tumor cell growth (comparison)” value in series [1] was “more effective than gemcitabine alone or the physical mixture of gemcitabine and DHA”; in series [3] it was “more effective than gemcitabine alone or the physical mixture of gemcitabine and DHA”. The “Tolerability (body weights)” value in the series on Panc-02 tumors (Panc-02 tumor-bearing mice, dosing regimen tested) is “well tolerated”. In the series with Panc-02 tumors (i.p., ~0.1 mmole/kg, twice a week, up to 6 doses), the “Inhibition of Panc-02 tumor growth” value is listed as “significantly inhibited the tumor growth”. Moreover, the “Fold by which IC50 is smaller than that of gemcitabine HCl” value with BxPC-3 cells is given as 1.8×10^5 fold. In series [2], the “Percent of injected compound recovered in each gram of pancreas” value worked out at 0.37±0.18%. In [4], the “Elimination from plasma (model)” value was “follows a bi-exponential model”. Moreover, the Median survival time in [5] (29 injections from week 20, untreated 172 days, p=0.01) was 280 days. The “Survival of the mice” value in series [5] (versus untreated) is reported as “significantly prolonged the survival”. Further, in the series on Panc-02 cells [6], the “Pro-apoptotic activity, Annexin V staining” value is listed as “concentration-dependent apoptosis”. This molecule showed an IC50 in the series with Panc-02 cells [7] of 0.034 nM. Moreover, the “Cytotoxicity after 4 h of co-incubation” value with Panc-02 tumor cells is on record as “significant cytotoxicity”.
